Measurements from PMC9043997, “LEAP2 reduces postprandial glucose excursions and ad libitum food intake in healthy men” (Cell Reports Medicine, 2022).
Where a SMILES comes first, the peptide text is derived from it. Bridges are numbered along the chain shown (N, C = ends).

Experiments:
[1] = tested on: healthy men; experiment: Plasma acetaminophen as indirect marker of gastric emptying, crossover study; assay type: in vivo, human; settings: healthy men n = 20, iv LEAP2 ~25 pmol/kg/min
Description: (§1) The infusion was terminated when participants had finished eating.
For analysis of plasma glucose, blood was distributed in fluoride heparin-coated tubes, centrifuged immediately for 30 s (12,100 g, room temperature) and measured bedside by the glucose oxidase method (YSI 2900 Biochemistry Analyzer; YSI Incorporated, Yellow Springs, Ohio, USA). For analysis of LEAP2, blood was collected in chilled K3EDTA tubes each containing 250 KIU of aprotinin. For analysis of acyl ghrelin, blood was collected in chilled K2EDTA tubes added 20 μL pefabloc (100 mg/mL; Merck Millipore, Burlington, Massachusetts, USA). Subsequently, pefabloc-treated plasma was acidified with HCl (12.5 μL 2M HCl per 500 μL plasma; Merck Millipore, Burlington, Massachusetts, USA). For analysis of glucagon, blood was collected in K2EDTA tubes. For analysis of GH, insulin, C-peptide, free fatty acids, glycerol, triglycerides and acetaminophen (paracetamol), blood was collected in tubes with lithium and heparin. All tubes were immediately cooled on ice, centrifuged for 15 min (2,000 g, 4°C) and stored at −80°C until analysis. LEAP2 concentrations were determined by an in-house radioimmunoassay directed against the N-terminal part of LEAP2. […] The precision and accuracy of the assay were evaluated based on European Medicines Agency's guidelines for bioanalytical assay validation. […] Due to supply chain disruptions from the COVID-19 pandemic, acyl ghrelin was only measured in plasma samples at timepoints 0, 60, 105, 165 and 255 min. […] Plasma GH was measured by Immunodiagnostic system-iSYS assay (IS-3700; IDS Limited, Boldon, UK). […] Glucagon was measured using a C-terminal directed antiserum (code number 4305) measuring glucagon of pancreatic origin as previously described.[40] […] Plasma insulin and C-peptide were measured using a two-sided electrochemiluminescence immunoassay (Atellica IM Analyzer; Siemens Healthcare, Ballerup, Denmark). Plasma triglycerides and acetaminophen were analyzed by spectrophotometric methods following enzymatic hydrolysis and oxidation (Siemens Atellica CH 930; Siemens Healthcare, Ballerup, Denmark). […]

[2] = tested on: wild-type mice; experiment: Plasma glucose and food intake after subcutaneous LEAP2 in wild-type mice; assay type: in vivo, mouse
Experimental: Food intake and blood glucose measurements were measured in female GHSR-null mice (n = 8) and wild-type littermates (n = 10) (14–24 weeks of age). Mice were double-housed with matching genotype and age. All mice were fasted for four hours and randomized by mean body weight per cage and allocated into either vehicle (saline) or LEAP2 administration on the first day of the study. LEAP2 or vehicle was administered subcutaneously just before start of dark phase (6 PM). By start of dark phase, mice had ad libitum access to water and a normal chow diet. Cumulative food intake was measured one, two and four hours after administration and calculated as the average food intake per cage per g body weight of each mouse, respectively. Blood glucose was measured in blood from a tail puncture at baseline and one, two and four hours after administration by use of a glucometer (Contour ™xt meter; Ascensia Diabetes Care, Basel, Switzerland). One week later, mice underwent the same procedure, but with the opposite treatment. The concentration of the LEAP2 dose was 3 μmol/kg.

[3] = tested on: wild-type mice; experiment: Fasting insulin and plasma glucose after subcutaneous LEAP2 in fasted wild-type mice; assay type: in vivo, mouse; settings: fasted female wild-type mice, LEAP2 3 μmol/kg subcutaneous
Experimental: For fasting insulin and glucose concentrations, females (15 weeks of age) were used. Mice were housed four mice per cage. On the experimental day, mice were fasted from four hours before subcutaneous administration until end of the study and randomized by body weight into either vehicle (saline) or LEAP2 dosing (3 μmol/kg). Blood samples were collected at timepoints −60, 20 and 60 min from the retro-orbital vein plexus using EDTA-coated capillary tubes. Plasma was subsequently separated from the blood after centrifugation (3,000 g, 4°C, 5 min) and stored at −80°C until analysis. Blood glucose was measured at timepoints −60, 20 and 60 min from eye blood and at timepoint 0 min from a tail puncture by use of the same glucometer (Contour ™xt meter; Ascensia Diabetes Care, Basel, Switzerland). Mouse plasma insulin concentrations were determined by use of a Mouse/Rat Insulin Kit (cat: K152BZC-1; Meso Scale Discovery, Gaithersburg, Maryland, USA). The assay was performed according to the manufacturer’s instructions, and the plate was measured by use of MESO QuickPlex SQ 120.

[4] = tested on: healthy men; experiment: Plasma acyl ghrelin during LEAP2 infusion, crossover study; assay type: in vivo, human; settings: mean ± SEM
Description: as §1
(§2) For analysis of plasma glucose, blood was distributed in fluoride heparin-coated tubes, centrifuged immediately for 30 s (12,100 g, room temperature) and measured bedside by the glucose oxidase method (YSI 2900 Biochemistry Analyzer; YSI Incorporated, Yellow Springs, Ohio, USA). For analysis of LEAP2, blood was collected in chilled K3EDTA tubes each containing 250 KIU of aprotinin. For analysis of acyl ghrelin, blood was collected in chilled K2EDTA tubes added 20 μL pefabloc (100 mg/mL; Merck Millipore, Burlington, Massachusetts, USA). Subsequently, pefabloc-treated plasma was acidified with HCl (12.5 μL 2M HCl per 500 μL plasma; Merck Millipore, Burlington, Massachusetts, USA). For analysis of glucagon, blood was collected in K2EDTA tubes. For analysis of GH, insulin, C-peptide, free fatty acids, glycerol, triglycerides and acetaminophen (paracetamol), blood was collected in tubes with lithium and heparin. All tubes were immediately cooled on ice, centrifuged for 15 min (2,000 g, 4°C) and stored at −80°C until analysis. LEAP2 concentrations were determined by an in-house radioimmunoassay directed against the N-terminal part of LEAP2. LEAP-2 was used for standards, and the tracer was a peptide composed of the 12 N-terminal amino acids of LEAP2, with a ^125I-labelled tyrosine added to the C-terminal end. The precision and accuracy of the assay were evaluated based on European Medicines Agency's guidelines for bioanalytical assay validation. […] Due to supply chain disruptions from the COVID-19 pandemic, acyl ghrelin was only measured in plasma samples at timepoints 0, 60, 105, 165 and 255 min. […] Plasma GH was measured by Immunodiagnostic system-iSYS assay (IS-3700; IDS Limited, Boldon, UK). The assay is based on chemiluminesence technology and was performed according to the manufacturer’|'s instructions. […] For analysis of glucagon, plasma was extracted in a final concentration of 70% ethanol. Glucagon was measured using a C-terminal directed antiserum (code number 4305) measuring glucagon of pancreatic origin as previously described.[40] […] Plasma insulin and C-peptide were measured using a two-sided electrochemiluminescence immunoassay (Atellica IM Analyzer; Siemens Healthcare, Ballerup, Denmark). Plasma triglycerides and acetaminophen were analyzed by spectrophotometric methods following enzymatic hydrolysis and oxidation (Siemens Atellica CH 930; Siemens Healthcare, Ballerup, Denmark). Plasma concentrations of free fatty acids and glycerol were determined by enzymatic methods modified to run on a COBAS 6000 automatic analyzer (Roche, Rødovre, Denmark) using a NEFA-HR assay (Wako Chemicals, Neuss, Germany) and glycerol assay (Randox Laboratories, Crumlin, UK), respectively.
(§3) Unless otherwise stated, results are presented as mean ± SEM. Baseline values were calculated as a mean of timepoints −35, −10 and 0 min or, when only available −10 and 0 min. Baseline values for the postprandial period were calculated as a mean of timepoint 60 min. Calculations of AUC were based on the trapezoidal rule. AUC values are reported for the period 0 to 255 min. To assess the fasting and postprandial periods separately, AUC values are reported for the periods 0 to 60 min and 60 to 255 min, respectively. Student’s paired t test was used to test for differences in baseline, peak, time to peak, AUC and mean values and ad libitum food intake in men.

[5] = tested on: healthy men; experiment: Plasma glucagon during LEAP2 infusion, crossover study; assay type: in vivo, human; settings: mean ± SEM
Description: as §1, §2, §3

[6] = 1.5 g acetaminophen in liquid mixed meal at 65 min, marker of gastric emptying, mean ± SEM
[7] = healthy men n = 20, LEAP2 day, before infusion
[8] = healthy men n = 20, iv LEAP2 ~25 pmol/kg/min, 0 to 255 min
[9] = healthy men n = 20, iv LEAP2 ~25 pmol/kg/min, fasting period
[10] = healthy men n = 20, iv LEAP2 ~25 pmol/kg/min, liquid mixed meal at 65 min
[11] = healthy men n = 20, iv LEAP2 ~25 pmol/kg/min, postprandial period
[12] = healthy men n = 20, iv LEAP2 ~25 pmol/kg/min, time = 60 min

CC[C@H](C)[C@@H]1NC(=O)[C@@H]2CSSC[C@@H](C(=O)N[C@@H](CO)C(=O)N[C@@H](CC(C)C)C(=O)N[C@@H](CO)C(=O)N[C@H](C(=O)N[C@@H](C)C(=O)N[C@@H](CCC(N)=O)C(=O)N[C@@H](CCC(=O)O)C(=O)O)C(C)C)NC(=O)[C@H](CCCNC(=N)N)NC(=O)[C@H](CCCNC(=N)N)NC(=O)[C@H](CCCCN)NC(=O)[C@H](CCCNC(=N)N)NC(=O)[C@H](CSSC[C@H](NC(=O)[C@H](CO)NC(=O)[C@H](C)NC(=O)CNC(=O)[C@@H](NC(=O)[C@@H]3CCCN3C(=O)[C@H](CCCNC(=N)N)NC(=O)[C@H](CC(C)C)NC(=O)[C@H](CO)NC(=O)[C@@H](NC(=O)CNC(=O)[C@H](CCCNC(=N)N)NC(=O)[C@H](Cc3c[nH]c4ccccc34)NC(=O)[C@H](Cc3ccccc3)NC(=O)[C@@H]3CCCN3C(=O)[C@@H](NC(=O)[C@@H](N)CCSC)[C@@H](C)O)C(C)C)[C@@H](C)CC)C(=O)N[C@@H](CCCNC(=N)N)C(=O)N[C@@H](CC(=O)O)C(=O)N[C@@H](CC(=O)O)C(=O)N[C@@H](CO)C(=O)N[C@@H](CCC(=O)O)C(=O)N2)NC(=O)[C@H](CC(C)C)NC(=O)[C@H](CCCNC(=N)N)NC(=O)[C@H]([C@@H](C)O)NC1=O [LEAP2, liver-expressed antimicrobial peptide 2] (H-MTPFWRGVSLRPIGASCRDDSECITRLCRKRRCSLSVAQE-OH; disulfide 17-28, 23-33 (inferred); N-terminus and C-terminus assumed)
Acetaminophen Peak [1, 6]: 65.1 ± 2.52 µmol/L | Acetaminophen Time to peak [1, 6]: 209 ± 6.34 min | gastric emptying rate of a liquid mixed meal ([1]; by plasma acetaminophen, vs placebo): does not alter gastric emptying rate | plasma glucose during ad libitum food intake 1 h after dosing vs vehicle ([2]; female wild-type mice n = 10, LEAP2 3 μmol/kg single subcutaneous dose, after 4 h fast): significantly diminished increases in plasma glucose | glucose-lowering effect at later time points (2 and 4 h) ([2]; female wild-type mice n = 10, LEAP2 3 μmol/kg subcutaneous): not at the later time points | cumulative food intake 2 and 4 h after dosing vs vehicle ([2]; female wild-type mice n = 10, LEAP2 3 μmol/kg subcutaneous, chow ad libitum from start of dark phase): lowered the cumulative food intake | fasting plasma glucose concentrations vs vehicle [3]: did not affect fasting plasma glucose concentrations | fasting insulin concentrations vs vehicle ([3]; 20 and 60 min): no effect | Acyl ghrelin Baseline [4, 7]: 0.155 ± 0.011 ng/mL | Acyl ghrelin AUC [4, 8]: 31.2 ± 1.94 ng·min/mL | Acyl ghrelin AUC0–60 min [4, 9]: 9.50 ± 0.67 ng·min/mL | Acyl ghrelin Nadir [4, 10]: 0.088 ± 0.006 ng/mL | Acyl ghrelin AUC60–255 min [4, 11]: 21.7 ± 1.33 ng·min/mL | Acyl ghrelin Postprandial baseline [4, 12]: 0.161 ± 0.012 ng/mL | Glucagon Baseline [5, 7]: 6.57 ± 0.76 pmol/L | Glucagon AUC [5, 8]: 2.26 ± 0.20 nmol·min/L | Glucagon AUC0–60 min [5, 9]: 0.446 ± 0.044 nmol·min/L | Glucagon Peak [5, 10]: 13.0 ± 0.94 pmol/L | Glucagon Time to peak [5, 10]: 116 ± 12.5 min | Glucagon AUC60–255 min [5, 11]: 1.82 ± 0.17 nmol·min/L | Glucagon Postprandial baseline [5, 12]: 7.35 ± 0.82 pmol/L
